According to the METLIN SMRT retention time set (Domingo-Almenara et al. 2019):

Assay: gradient 5% acetonitrile 3 min, to 50% in 2 min, to 85% in 15 min, held 3 min, 100 µL/min
Settings: column: Zorbax Extend-C18 2.1 x 50 mm; eluents: water / acetonitrile, 0.1% formic acid
Procedure, shortened: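 In both positive and negative ionization mode, a quadrupole time-of-flight mass spectrometer coupled to HPLC analyzed pure standards run in mixtures of ~100 molecules. The Zorbax Extend-C18 column (2.1 × 50 mm, 1.8 μm) was operated at 100 μL/min with water and acetonitrile, each containing 0.1% formic acid. The dead volume was 40 μL and the dwell volume 900 μL. Retention time came from adduct peaks that were computationally picked and individually inspected by hand.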

Row | SMILES | RP-LC retention time
1 | Cn1nccc1-c1csc(S(=O)(=O)NC2CC2)c1 | 713 s
2 | CN1C(=O)[C@H]2CN(Cc3ccccc3Cl)C[C@H]2C1=O | 600 s
3 | CCC(=O)N1CCc2cc(C(=O)N3CCOCC3)ccc21 | 637 s
4 | O=C1N=C2C(=Nc3ccccc32)C(=O)N1CCN1CCN(c2ccccc2Cl)CC1 | 743 s
5 | CCn1cc(C)c(C(=O)O)c1CC(=O)NCc1ccc(SC)cc1 | 758 s
6 | CCCC(=O)Nc1nnc(SCc2nnc(-c3ccccc3)o2)s1 | 779 s
7 | O=C(c1ccc([N+](=O)[O-])o1)N1CC2CC(C1)c1cccc(=O)n1C2 (configuration not stated) | 585 s
8 | COc1ccc(C(=O)NC2(c3nc(C)no3)CCCCC2)c(C)c1 | 855 s
9 | CCCN1CCN(S(=O)(=O)c2cc(-c3nnc(C4CCC4)o3)co2)CC1 | 622 s
10 | COc1ccc(C2Cn3nnc(-c4nc(C)no4)c3CO2)cc1 (configuration not stated) | 833 s
11 | O=C(CCC(=O)N1CC2CCCN2c2ccccc21)NCCCN1CCCCC1 (configuration not stated) | 646 s
12 | CCOCCCNC(=O)C1CCCN(c2nnc(C)c3c(C)n(-c4ccc(C)cc4)nc23)C1 (configuration not stated) | 687 s
13 | CC1CCCCN1CCCNC(=O)CN1C(=O)CSc2cccn2-c2ccccc21 (configuration not stated) | 651 s
14 | COC(=O)c1ncn2c1C(=O)N(CCc1ccccc1)C(C)(C(=O)NC1CCCC1)C2 (configuration not stated) | 738 s
15 | CNC(=O)c1csc(N2CCCC2)n1 | 671 s
16 | O=C1NC(C(=O)NCc2ccccn2)Cn2cccc21 (configuration not stated) | 541 s

The next lines start with the values.

Row | RP-LC retention time | SMILES
17 | 987 s | CS(=O)(=O)c1nc2ccc(NS(=O)(=O)c3ccc4c(c3)CCC4)cc2s1
18 | 766 s | C=CCNC(=O)C1CCCN(C(=O)Nc2ccc(NC(=O)Nc3ccc(C)c(C)c3)cc2)C1 (configuration not stated)
19 | 800 s | COCCN1C(=O)CCc2cc(NS(=O)(=O)c3ccc(F)c(C)c3)ccc21
20 | 980 s | COC(=O)c1cccc(Nc2c(-c3ccc(F)cc3)nc3cnc(Br)cn23)c1
21 | 616 s | O=C(Nc1ccc(S(=O)(=O)Nc2nccs2)cc1)c1ccco1
22 | 935 s | Cc1sc(NC(=O)c2ccc(F)cc2)nc1-c1ccc2c(c1)NC(=O)C(C)O2 (configuration not stated)
23 | 932 s | CCc1cccc(NC(=O)C2CCN(S(=O)(=O)c3ccc4c(c3)sc(=O)n4CC)CC2)c1
24 | 650 s | Cc1cc(C)nc(N2CCC(NC(=O)c3cccc4nccnc34)CC2)n1
25 | 876 s | Cc1ccc(CN2C(=O)NC3(CCN(C(=O)COc4ccc(C)cc4)CC3)C2=O)cc1
26 | 1320 s | Cc1ccc(NC(=O)c2c(O)c3cccnc3n(-c3ccc(F)cc3)c2=O)c(C)c1
27 | 995 s | CCCCn1cc(S(=O)(=O)Nc2cc(F)ccc2C)c2cccnc21
28 | 899 s | O=C1COc2ccc(-c3csc(NC(=O)c4ccc(Cl)cc4)n3)cc2N1
29 | 696 s | COc1ccccc1NC(=O)Cn1nc2c(N3CCCCCC3)nccn2c1=O
30 | 1170 s | COc1ccc(-c2nc(-c3ccc4oc(C)nc4c3)no2)c(C)c1
31 | 903 s | Cc1ccc2c(c1)cc(S(=O)(=O)c1ccccc1)c(=O)n2CC(=O)NC1CCCC1
32 | 1080 s | Cc1ccc(C)c(NC(=O)Cn2nc3c(Oc4ccc(C(C)C)cc4)nccn3c2=O)c1
33 | 604 s | CCNC(=O)Nc1ccc(OCC(=O)N2CCN(c3ncccn3)CC2)nc1
34 | 672 s | O=S(=O)(NCC(c1ccco1)N1CCN(c2ccccc2F)CC1)c1cccs1 (configuration not stated)
35 | 892 s | Cc1ccc(-c2nnc(N3CCC(C(=O)NC(C)c4ccc(F)cc4)CC3)o2)cc1 (configuration not stated)
36 | 913 s | COc1ccccc1CNC(=O)C1CCC(=O)N1S(=O)(=O)c1ccc(C)c(C)c1 (configuration not stated)
37 | 624 s | O=C(NCc1ccc(N2CCN(c3ccccn3)CC2)cc1)c1ccoc1
